Results published in ChEMBL document CHEMBL4402592, “Targeting Endoplasmic Reticulum α-Glucosidase I with a Single-Dose Iminosugar Treatment Protects against Lethal Influenza and Dengue Virus Infections” (J Med Chem, 2020).
Calls of active or inactive are those of the source. No cut-off for these calls is given here.

What was measured:
Mus musculus = test: In vivo inhibition of ERGlu1 in BALB/c mouse assessed as increase in tri-glucosylated FOS level in spleen at >250 mg/kg, po administered via gavage as single dose at 8 hrs post-infection and measured at 8 hrs post dose by NP-HPLC analysis; type: functional, organism-based
Influenza A virus [1] = test: Antiviral activity against Influenza A virus (A/Texas/36/1991(H1N1)) infected in BALB/c mouse assessed as animal survival at 750 mg/kg, po administered via gavage as single dose at 8 hrs post infection (reference value: 0%); type: functional
Influenza A virus [2] = test: Antiviral activity against Influenza A virus (A/Texas/36/1991(H1N1)) infected in BALB/c mouse assessed as animal survival at 750 mg/kg, po administered via gavage as single dose at 16 hrs post infection (reference value: 0%); type: functional
dengue virus type 2 [3] = test: Antiviral activity against Dengue virus 2 S221 infected in DENV antibody dependent enhancement AG129 mouse model assessed as reduction in KC-GRO level at 750 mg/kg, po administered via gavage as two doses at 36 hrs and 52 hrs post infection measured at 60 hrs post-infection by electrochemiluminescence based method; type: functional, organism-based
dengue virus type 2 [4] = test: Antiviral activity against Dengue virus 2 S221 infected in DENV antibody dependent enhancement AG129 mouse model assessed as animal survival at 750 mg/kg, po administered via gavage as two doses at 24 and 40 hrs post infection (reference value: 4%); type: functional

COCCCCCCCCCN1C[C@H](O)[C@@H](O)[C@H](O)[C@H]1CO.Cl
inhibition (Mus musculus): Active | survival at 750 mg/kg (Influenza A virus [1]): 80% | survival at 750 mg/kg (Influenza A virus [2]): 70% | Activity (dengue virus type 2 [3]): Active | survival at 750 mg/kg (dengue virus type 2 [4]): 89%
